Assay results reported in article PMC9054546, “Synthesis and molecular modeling studies of cholinesterase inhibitor dispiro[indoline-3,2′-pyrrolidine-3′,3′′-pyrrolidines]” (RSC Advances, 2020).
Where “and” joins values, the source holds several entries; their conditions need not be identical. Equal values may be shown once. Read-outs that look alike come from different tables or passages of the source.

Assays:
AChE [1] = biological target: T1, AChE (Homo sapiens, UniProt P22303); test: 2D-QSAR (BMLR, CODESSA-Pro) model, AChE inhibitors; details: observed minus estimated IC50
Source text: (§1) The cholinesterase properties observed were undertaken by CODESSA-Pro software accessible for optimizing 2D-QSAR models.[39–41] This is useful for well understanding the bio-observations and identifying the parameters necessary for bio-potency. Three descriptor QSAR models were developed due to the AChE and BChE inhibitory properties of the synthesized dispiro-compounds 8a–l (ESI Tables S4–S9, Fig. S40 and S41, details of the QSAR descriptors are also mentioned in the ESI). ^† […]
(§2) Goodness of the QSAR models was supported by the comparative values of the correlation coefficient (R^2) with their cross validation of leave one-out (R^2cvOO) and leave many-out (R^2cvMO) [R^2 = 0.923, 0.979; R^2cvOO = 0.882, 0.936; R^2cvMO = 0.904, 0.956, for AChE and BChE models, respectively]. Standard deviation (s^2) and Fisher criteria (F) values of the models also support their goodness (s^2 = 0.026, 0.005; […]. Additionally, the correlations of the observed and predicted values “specially the high potent synthesized compounds” add good support for the attained models. […]
(§3) Molecular modeling studies
(§4) The synthesized dispiro[indoline-3,2'-pyrrolidine-3',3''-pyrrolidines] 8a‒l […]
(§5) 2D-QSAR modeling by CODESSA-Pro (comprehensive descriptors for structural and statistical analysis) software. Geometry of the compounds was initially optimized by AM1 technique using hyperChem 8.0 then, uploaded to CODESSA-Pro for final geometrical structure optimization by MOPAC.10‒12 CODESSA-Pro calculated 656 molecular descriptors (constitutional, topological, geometrical, charge-related, semi-empirical, thermodynamical, molecular-type, atomic-type and bond-type descriptors) for […]
(§6) the exported bio-active agents. Mathematical transformation of the experimental values […]
(§7) QSAR model. The best multi-linear regression (BMLR) technique was utilized which is a stepwise search for the best n-parameter regression equations (where n stands for the number of descriptors used), based on the highest R2 (squared correlation coefficient), R2cvOO (squared cross-validation “leave one-out, LOO” coefficient), R2cvMO (squared cross-validation “leave many-out up to 20% of the training set, LMO” coefficient), F (Fisher statistical significance criteria) values, and s2 (standard deviation). The QSAR up to 3-descriptor model describing the biological activity of the bio-active agents were generated (obeying the thumb rule of 4:1 which is the ratio between the data points and the number of QSAR descriptor).
(§8) Minimum (>0.1) bond order for atom C is an atomic type descriptor with the […]
(§9) why the higher descriptor value, the lower AChE inhibitory efficacy of the tested agent as […]
(§10) 2/SQRT(TMSA) (MOPAC PC) is a charge related descriptor with relatively high […]
(§11) . Compounds with high descriptor value predicted low AChE
(§12) 0.11715). HDCA2 (area weighed surface charge of hydrogen bonding donor atoms) can be calculated by equ. (1). 13
(§13) HDCA2 = D … .DtotH‒donor (1)
(§14) Where, standsSD for the solvent accessible surface area of H-bonding donor H atoms (selected by threshold charge), is the partialqD charge on H-bonding donor H atoms (selected by threshold charge) and is the totalStot solvent accessible molecular surface […]
(§15) Square root of surface area for atom C is also a charge related descriptor with […]
(§16) . For this reason, the higher descriptor value of […]

BChE [2] = biological target: T2, BChE (Homo sapiens, UniProt P06276); test: 2D-QSAR (BMLR, CODESSA-Pro) model, BChE inhibitors; details: observed minus estimated IC50
Source text: as §1, §2, §3, §4, §5, §6, §7, §8, §9, §10, §11, §12, §13, §14, §15, §16
partial positively and negatively charged surface area can be calculated by equs. (2) and […]
PPSA3 = A … .. (2)A∈{δA>0}
PNSA3 = A … ..A∈{δA>0} (3)
Where, is the positively/negativelySA charged solvent accessible atomic surface area and qA is the atomic partial charge.
ZX Shadow/ZX rectangle is a geometrical descriptor with the highest coefficient […]
. The higher descriptor value of […]
compounds 8c and 8e, respectively). Relative shadow areas of a molecule can be determined by equ. (4). 13
Where, C is contour of the projection of the molecule on the plane defined by two principal axes of the molecule (k = XY, XZ or YZ plane), , , = X • ν –x or yρ –y or zS(k) […]
Maximum atomic state energy for atom O is an atomic type descriptor. […]

AChE [3] = biological target: T1, AChE; test: biochemical; details: for SI(AChE/BChE): selectivity index = IC50 (AChE)/IC50 (BChE)
Experimental: Butyrylthiocholine iodide and acetylthiocholine were utilized as substrates in BChE and AChE assays, respectively, where DTNB was served as indicator. All compounds were dissolved in MeOH. […] Blank assays were performed by replacing the enzyme (20 μL) with buffer and their absorbances were recorded for correction of the spontaneous lysis of the indicator or inherent color of the inhibitor.
Selectivity index (SI) for acetyl and butyryl cholinesterases was calculated as follow:SI(AChE/BChE) = IC50 (AChE)/IC50 (BChE)SI(BChE/AChE) = […]

[4] = test system: RPE1 (human immortalized retinal pigment epithelial cell line); test: Antiproliferative/cytotoxicity MTT assay on normal cell line; format: cell-based; details: RPE-1, 72 h incubation, tested at 100, 50, 25 and 12.5 μM, read-out: IC50 against RPE1
Source text: Antiproliferative properties of the synthesized agents 8a–l were considered against RPE1 (human immortalized retinal pigment epithelial cell line) normal cell line utilizing the standard MTT (tetrazolium salt) technique.[37]
The synthesized agents 8a–l were screened against RPE1 (human immortalized retinal pigment epithelial cell line) normal cell line to investigate their cytotoxicity by the standard mitochondrial dependent reduction of yellow MTT [3-(4,5-dimethylthiazol-2-yl)-2,5-diphenyl-tetrazolium bromide] to purple formazan technique.[37] Cells were suspended in DMEM in addition to 1% antibiotic–antimycotic mixture (10 000 μg mL^−1 potassium penicillin, 10 000 μg mL^−1 streptomycin sulfate and 25 μg mL^−1 amphotericin B), 10% fetal bovine serum and 1% L-glutamine at 37 °C, under 5% CO2 and 95% humidity. Cells were seeded at concentration of 30 000 cells per well in fresh complete growth medium in 96-well tissue culture microtiter plates for 24 h. […] 0.5% DMSO was used as negative control. Triplicate wells were prepared for each individual dose. After 72 h of incubation, medium was aspirated, 40 μl MTT salt (2.5 mg mL^−1) were added to each well and incubated for further 4 h at 37 °C. To stop the reaction and dissolve the formed crystals, 150 μL of 10% sodium dodecyl sulfate (SDS) in deionized water were added to each well and incubated overnight at 37 °C.
Data were collected as mean values for experiments performed in triplicates for each individual dose which had been measured by MTT assay. […] The percentage of cell survival was calculated according to the following equation. [drawing 1]
Statistical calculations for determination of the mean and standard error values were determined by SPSS 16 software.

BChE [5] = biological target: T2, BChE; test: biochemical; details: for SI(BChE/AChE): selectivity index BChE/AChE
Experimental: Butyrylthiocholine iodide and acetylthiocholine were utilized as substrates in BChE and AChE assays, respectively, where DTNB was served as indicator. All compounds were dissolved in MeOH. […] Blank assays were performed by replacing the enzyme (20 μL) with buffer and their absorbances were recorded for correction of the spontaneous lysis of the indicator or inherent color of the inhibitor. […]

[6] = 10 min incubation at 25 °C, read at 405 nm, read-out: IC50 of AChE (μM) ± SD
[7] = log transformation of the observed IC50, read-out: Observed log(IC50, μM), AChE (converted)
[8] = 10 min incubation at 25 °C, read at 405 nm, read-out: IC50 of BChE (μM) ± SD
[9] = log transformation of the observed IC50, read-out: Observed log(IC50, μM), BChE (converted)

T2 sequence (P06276 29-602): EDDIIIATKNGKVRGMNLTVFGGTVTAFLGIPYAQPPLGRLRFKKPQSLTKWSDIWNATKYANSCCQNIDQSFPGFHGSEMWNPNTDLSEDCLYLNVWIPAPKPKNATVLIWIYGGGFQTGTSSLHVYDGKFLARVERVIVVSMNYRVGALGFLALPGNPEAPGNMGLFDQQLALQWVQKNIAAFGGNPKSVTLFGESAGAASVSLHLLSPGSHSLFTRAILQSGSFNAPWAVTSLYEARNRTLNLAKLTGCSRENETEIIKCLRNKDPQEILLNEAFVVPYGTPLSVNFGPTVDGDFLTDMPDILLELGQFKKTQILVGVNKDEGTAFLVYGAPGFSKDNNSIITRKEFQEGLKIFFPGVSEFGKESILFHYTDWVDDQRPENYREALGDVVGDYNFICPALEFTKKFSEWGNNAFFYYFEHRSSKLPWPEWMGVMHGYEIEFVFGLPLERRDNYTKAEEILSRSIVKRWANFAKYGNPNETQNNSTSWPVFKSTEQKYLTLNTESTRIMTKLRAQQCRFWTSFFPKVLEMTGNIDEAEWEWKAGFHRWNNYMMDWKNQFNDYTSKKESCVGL
T1 sequence (P22303 32-614): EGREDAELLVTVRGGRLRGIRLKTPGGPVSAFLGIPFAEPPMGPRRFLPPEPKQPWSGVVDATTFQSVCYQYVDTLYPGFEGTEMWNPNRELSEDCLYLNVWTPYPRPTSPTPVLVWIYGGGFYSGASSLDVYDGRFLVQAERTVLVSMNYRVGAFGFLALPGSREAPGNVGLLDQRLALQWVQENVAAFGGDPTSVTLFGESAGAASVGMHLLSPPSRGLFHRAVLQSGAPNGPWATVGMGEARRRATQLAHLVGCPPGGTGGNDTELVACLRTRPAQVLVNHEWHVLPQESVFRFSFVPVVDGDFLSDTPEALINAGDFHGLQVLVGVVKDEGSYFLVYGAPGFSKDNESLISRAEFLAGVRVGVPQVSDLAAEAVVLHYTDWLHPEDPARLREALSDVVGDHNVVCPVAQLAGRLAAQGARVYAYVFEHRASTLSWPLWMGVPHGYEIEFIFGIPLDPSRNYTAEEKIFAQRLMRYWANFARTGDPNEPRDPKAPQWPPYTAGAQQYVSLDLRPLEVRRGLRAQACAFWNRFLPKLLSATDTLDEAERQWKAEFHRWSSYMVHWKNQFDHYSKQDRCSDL

Compound | Error (difference between observed and estimated property values), AChE BMLR-QSAR model (AChE [1]) [µM] | Error (difference between observed and estimated property values), BChE BMLR-QSAR model (BChE [2]) [µM] | IC50 (AChE [3]; [6]) [µM] | IC50 (AChE [3]; [7]) [µM] | SI(AChE/BChE) (AChE [3]) | IC50 [4] [µM] | IC50 (BChE [5]; [8]) | IC50 (BChE [5]; [9]) [µM] | SI(BChE/AChE) (BChE [5])
CN1CC(c2ccccc2)C2(CC(=O)N(c3ccc(Cl)cc3)C2=O)C12C(=O)Nc1ccc(Cl)cc12 (stereo not drawn) [Compound 8i, 5-Chloro-1′′-(4-chlorophenyl)-1′-methyl-4′-phenyldispiro[indoline-3,2′-pyrrolidine-3′,3′′-pyrrolidine]-2,2′′,5′′-trione] | -3.69 | -3.48 | 39.4 | 39.4 | 1.12 | > 100 | 35.1 µM | 35.1 | 0.89
COc1ccc(C2CN(C)C3(C(=O)Nc4ccc(Cl)cc43)C23CC(=O)N(c2ccccc2)C3=O)cc1 (stereo not drawn) [Compound 8f, 5-Chloro-4′-(4-methoxyphenyl)-1′-methyl-1′′-phenyldispiro[indoline-3,2′-pyrrolidine-3′,3′′-pyrrolidine]-2,2′′,5′′-trione] | 1.32 | 1.88 | 12.3 | 12.3 | 0.61 | > 100 | 20.1 ± 0.16 µM | 20.1 | 1.64
CN1CC(c2ccccc2)C2(CC(=O)N(c3ccccc3)C2=O)C12C(=O)Nc1ccccc12 (stereo not drawn) [Compound 8a, 1′-Methyl-1′′,4′-diphenyldispiro[indoline-3,2′-pyrrolidine-3′,3′′-pyrrolidine]-2,2′′,5′′-trione] | -13.41 | 12.80 | 117 | 117 | 1.43 | > 100 | 81.8 µM | 81.8 | 0.70
CN1CC(c2ccccc2)C2(CC(=O)N(c3ccccc3)C2=O)C12C(=O)Nc1ccc(Cl)cc12 (stereo not drawn) [Compound 8b, 5-Chloro-1′-methyl-1′′,4′-diphenyldispiro[indoline-3,2′-pyrrolidine-3′,3′′-pyrrolidine]-2,2′′,5′′-trione] | 0.13 | -6.64 | 13.6 ± 0.62 | 13.6 | 0.32 | > 100 | 42.5 µM and 42.4 µM | 42.5 | 3.12
CN1CC(c2ccc(Cl)cc2)C2(CC(=O)N(c3ccc(Cl)cc3)C2=O)C12C(=O)Nc1ccc(Cl)cc12 (stereo not drawn) [Compound 8k, 5-Chloro-1′′,4′-bis(4-chlorophenyl)-1′-methyldispiro[indoline-3,2′-pyrrolidine-3′,3′′-pyrrolidine]-2,2′′,5′′-trione] | -0.82 | 1.09 | 13.9 | 13.9 | 1.36 | > 100 | 10.2 ± 0.76 µM | 10.2 | 0.73
COc1ccc2c(c1)C1(C(=O)N2)N(C)CC(c2ccccc2)C12CC(=O)N(c1ccccc1)C2=O (stereo not drawn) [Compound 8c, 5-Methoxy-1′-methyl-1′′,4′-diphenyldispiro[indoline-3,2′-pyrrolidine-3′,3′′-pyrrolidine]-2,2′′,5′′-trione] | 18.50 | 7.44 | 103 | 103 | 1.43 | > 100 | 71.7 µM | 71.7 | 0.70
CN1CC(c2ccc(Cl)cc2)C2(CC(=O)N(c3ccccc3)C2=O)C12C(=O)Nc1ccc(Cl)cc12 (stereo not drawn) [Compound 8d, 5-Chloro-4′-(4-chlorophenyl)-1′-methyl-1′′-phenyldispiro[indoline-3,2′-pyrrolidine-3′,3′′-pyrrolidine]-2,2′′,5′′-trione] | 13.92 | -5.91 | 24.3 ± 4.08 | 24.3 | 1.14 | > 100 | 21.3 µM | 21.3 | 0.88
